Reference: patent publication US11440870B2, “Cannabidiolic acid esters compositions and uses thereof” (Yissum Research Development Company of the Hebrew …, priority 2017, dated 2022)

Tests used:
[1] = tested on: anxiety-like responding in rats; conditions: i.p.; literature (Rock et al., 2017); cited from earlier work
[2] = tested on: LiCl-induced conditioned gaping (acute nausea) in rats; conditions: i.p.; literature (Bolognini et al., 2013; Rock et al.); cited from earlier work
human 5-HT1A receptors = target: T1, human 5-HT1A receptors (Homo sapiens, UniProt P08908); test: [35S]-GTPγS binding assay: enhancement of 8-OH-DPAT-induced stimulation, human 5-HT1A CHO cell membranes; assay type: biochemical; conditions: n=6
T1 construct: expressed in transfected cells; membranes used
T1 sequence (P08908 1-422): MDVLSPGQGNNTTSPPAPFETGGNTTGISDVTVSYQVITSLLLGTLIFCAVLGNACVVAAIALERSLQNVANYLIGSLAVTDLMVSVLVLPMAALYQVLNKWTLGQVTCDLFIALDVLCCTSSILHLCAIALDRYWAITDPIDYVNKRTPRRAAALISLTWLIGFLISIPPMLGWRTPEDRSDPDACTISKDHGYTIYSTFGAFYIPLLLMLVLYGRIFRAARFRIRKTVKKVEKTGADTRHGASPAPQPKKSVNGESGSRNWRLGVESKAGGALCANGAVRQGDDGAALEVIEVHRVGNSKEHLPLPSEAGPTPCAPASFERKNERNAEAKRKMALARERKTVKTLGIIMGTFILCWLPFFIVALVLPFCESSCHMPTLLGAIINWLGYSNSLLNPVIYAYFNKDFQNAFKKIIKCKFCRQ
Protocol: CHO cells stably transfected with cDNA encoding human 5-HT1A receptors (a generous gift from Dr Keith Parker) were maintained at 37° C. and 5% CO2 in Gibco™ Ham's F-12 Nutrient Mix supplied by Fisher Scientific UK Ltd that was supplemented both with 2 mM L-glutamine, 10% FBS and 0.6% penicillin-streptomycin, all also supplied by Fisher Scientific UK Ltd, and with the disulphate salt of G418 [(2R,3S,4R,5R,6S)-5-amino-6-{[(1R,2S,3S,4R,6S)-4,6-diamino-3-{[(2R,3R,4R,5R)-3,5-dihy-droxy-5-methyl-4-(methylamino)oxan-2-yl]oxy}2-hydroxy cyclohexyl]oxy}-2-[(1R)-1-hydroxyethyl]oxane-3,4-diol; […]] supplied by Sigma-Aldrich UK.
[^35S]-GTPγS binding assay. Each assay was carried out with human 5-HT1A CHO cell membranes (50 μg protein per well), GTPγS-binding buffer (50 mM Tris-HCl; 50 mM Tris-Base; 5 mM MgCl2; 1 mM EDTA; 100 mM NaCl; 1 mM DTT and 0.1% BSA), 0.1 nM [^35S]-GTPγS and 30 μM GDP, in a final volume of 500 μL (Cascio et al., 2010). Binding was initiated by the addition of [^35S]-GTPγS to the wells. Non-specific binding was measured in the presence of 30 μM GTPγS. Assays were performed at 30° C. for 60 min (Cascio et al., 2010). The reaction was terminated by a rapid vacuum filtration method using Tris-binding buffer as described previously by Cascio et al. (2010), and the radioactivity was quantified by liquid scintillation spectrometry. In all the [^35S]-GTPγS-binding assays, 0.1 nM [^35S]-GTPγS was used, […] and a protein concentration of […]. CBDA, HU-580, 8-OH-DPAT and WAY100635 were stored at −20° C. as 10 mM stock solutions dissolved in DMSO.
Net agonist-stimulated [^35S]-GTPγS binding values were calculated by subtracting basal binding values (obtained in the absence of agonist) from agonist-stimulated values (obtained in the presence of agonist) (Cascio et al., 2010). Values are expressed as means and variability as SEM or as 95% confidence limits. Mean EC50 and mean maximal effect (Emax) values, and SEM or 95% confidence limits of these values, have been calculated by nonlinear regression analysis using the equation for a sigmoid concentration-response curve (GraphPad Prism). P values<0.05 were considered significant. The data and statistical analysis comply with the recommendations on experimental design and analysis in pharmacology (Curtis et al., 2015).

[3] = Stability on storage at 4° C.; conditions: stored at 4° C. (21 days for the comparison)

**Q.** Which results are given for C=C(C)[C@@H]1CCC(C)=C[C@H]1c1c(O)cc(CCCCC)c(C(=O)O)c1O [CBDA, Cannabidiolic acid]?
**A.** Doses as low as which anxiolytic-like effects are produced under conditions of high stress [1]: 0.1 µg/kg; Dose as low as which anti-nausea effects are induced (vomiting in Suncus murinus, conditioned gaping in rats) [2]: 1 µg/kg; Emax (human 5-HT1A receptors; pretreatment 0.01 nM CBDA (FIG. 1A)): 95.6%; Emax (human 5-HT1A receptors; pretreatment 0.1 nM CBDA (FIG. 1B), * P<0.05 vs vehicle): 115%; Emax (human 5-HT1A receptors; pretreatment 1.0 nM CBDA (FIG. 1C), * P<0.05 vs vehicle): 167%; Emax (human 5-HT1A receptors; pretreatment 10 nM CBDA (FIG. 1D), * P<0.05 vs vehicle): 144%; Emax (human 5-HT1A receptors; pretreatment 100 nM CBDA (FIG. 1E)): 109%

**Q.** Which “Effect of the compound by itself on [35S]-GTPγS binding (agonist or inverse agonist behaviour)” value (human 5-HT1A receptors; administered by itself at 0.01, 0.1, 1, 10 or 100 nM, data not shown) does the source give for C=C(C)[C@@H]1CCC(C)=C[C@H]1c1c(O)cc(CCCCC)c(C(=O)OC)c1O [HU-580, Cannabidiolic Acid Methyl Ester] here?
**A.** did not behave as a 5-HT1A receptor agonist or inverse agonist

**Q.** What about the Emax (human 5-HT1A receptors; pretreatment 0.001 nM HU-580 (FIG. 2A)) of the same compound?
**A.** 99.8%

**Q.** What about the Emax (human 5-HT1A receptors; pretreatment 0.001 nM HU-580 (FIG. 2B), * P<0.05 vs vehicle) of the same compound?
**A.** 127%

**Q.** What about the Emax (human 5-HT1A receptors; pretreatment 0.1 nM HU-580 (FIG. 2C), * P<0.05 vs vehicle) of the same compound?
**A.** 125%

**Q.** What about the Emax (human 5-HT1A receptors; pretreatment 1.0 nM HU-580 (FIG. 2D), * P<0.05 vs vehicle) of the same compound?
**A.** 140%

**Q.** What about the Emax (human 5-HT1A receptors; pretreatment 10 nM HU-580 (FIG. 2E), * P<0.05 vs vehicle) of the same compound?
**A.** 139%

**Q.** And the Emax (human 5-HT1A receptors; pretreatment 100 nM HU-580 (FIG. 2F))?
**A.** 92%

**Q.** What about the Stability when stored [3] of the same compound?
**A.** more stable than CBDA
